Values of other authors, collected in patent US20020132751A1, “Detergent compositions” (Unilever Home & Personal Care USA, Division of Conopco, Inc., priority 2000, published 2002).

Conditions: grams of solid to form a saturated solution in 100 grams of water at 20° C.

Compound	Water Solubility (g/100 g)
O=BO[O-].[Na+] [Sodium perborate anhydrous]	3.7
O=P(O)(O)OP(=O)(O)OP(=O)(O)O [Sodium tripolyphosphate anhydrous]	15
